Reference: patent US8791132B2, “Compounds and methods for treatment of hypertension” (Medivation Technologies, Inc., priority 2011, dated 2014)

What was measured:
SH-SY5Y cells = assay: Cell viability (MTS reduction) in 4-Br-A23187-treated SH-SY5Y cells; format: cell-based; conditions: MTS reduction capacity; 4-Br-A23187 2 μM, 24 h; compounds at 10 nM
Description: After 24 h, cells were depleted from FBS and kept in culture for 24 h before the experiment. Cells were then treated with 4-Br-A23187 (2 μM), hydrogen peroxide (300 μM) or the mitochondrial toxin rotenone (25 μM) in the presence of vehicle or Compound of the Invention for 24 h. Cell death was determined by measurements of LDH release according to the Cytotoxicity Detection KitPlus (Roche, Mannheim, Germany). Cell viability was determined by measuring the capacity of cells to metabolize MTS tetrazolium (MTS) according to the Cytotoxicity Detection KitPlus (Roche, Mannheim, Germany) and MTS reduction is assessed by the CellTiter 96® AQueous One Solution Cell Proliferation assay (Promega Corporation, Madison, Wis., USA). Compounds were screened at 10 nM, using DMSO as vehicle. Assay results for the experiments with hydrogen peroxide are presented as the LDH release (cell death) of untreated cells (control), hydrogen peroxide-treated cells (vehicle), and co-incubation of hydrogen peroxide with Compounds of the Invention treated cells normalized to the vehicle (FIG. 17A). This assay assesses the ability of the test compounds to protect against cell death that is mediated by mitochondrial dysfunction. In the assay, the calcium ionophore 4-Br-A23187 is used to challenge the cells, causing calcium levels to rise in mitochondria, which leads to depolarization and cell death. Test compounds are assessed for their ability to prevent cell death in response to challenge with 4-Br-A23187.

[1] = system: SH-SY5Y cells over-expressing α-syn; assay: Cell viability (MTS reduction) in SH-SY5Y cells over-expressing α-synuclein; format: cell-based; conditions: Homo sapiens, 336 h, α-syn over-expression (−dox), compounds at 0.1 nM, +dox control = 100, 14 days, read-out: Relative cell viability protection
Description: Cell Culture. SH-SY5Y cells stably transfected with a doxycyline-inducible wild-type α-synuclein (α-syn) gene along with control SH-SY5Y cells over-expressing the β-galactosidase (β-gal) gene (a gift from L. Stefanis, Division of Basic Neurosciences, Biomedical Research Foundation of the Academy of Athens, Athens, Greece) are cultured as described by Vekrellis et al. (Vekrellis K, Xilouri M, Emmanouilidou E, Stefanis L. (2009). Inducible over-expression of α-syn in human neuronal cells leads to caspase-dependent non-apoptotic death. J Neurochem 109, 1348-1362). In accordance with this method, cells are cultured and maintained in RPMI 1640, 10% fetal bovine serum supplemented with 250 μg/mL G418 and 50 μg/mL Hygromycin B. Expression of α-syn is switched off in stock cultures with doxycycline (2 μg/mL). For experimental procedures, cells are plated at (4−8×10^4 cells/cm^2) and differentiated in absence of doxycycline and in the presence of 20 μM all-trans retinoic acid (RA) (Sigma, St Louis, Mo., USA).
Viability Assay: Cells are cultured in 96-well plates. After 24 h, cells are treated with RA and Compounds of Invention at 0.1 and 10 nM in the absence of doxycyline. Culture medium with RA and drugs is fully replaced after 7 days. Cell viability is measured by the release of lactate dehydrogenase (LDH) from necrotic cells into the culture medium and by measuring the capacity of cells to metabolize MTS tetrazolium (MTS) after 14 days in culture. LDH leakage is assessed according to the Cytotoxicity Detection KitPlus (Roche, Mannheim, Germany) and MTS reduction is assessed by the CellTiter 96® AQueous One Solution Cell Proliferation assay (Promega Corporation, Madison, Wis., USA).
Assay results for the experiments with α-syn over-expression are presented as the MTS reduction capacity (cell viability) of control cells (+dox), cells over-expressing α-syn (−dox), and cells over-expressing α-syn incubated with Compounds of the Invention at 0.1 nM (FIG. 18A) or 10 nM (FIG. 18B).

healthy dogs = assay: Blood pressure in healthy beagle dogs (telemetry); format: in vivo, dog
Excerpt: (§1) Four adult beagle dogs of both sex and weighted around 10 kg were chosen for the acute studies after a preliminary qualitative electrocardiogram/ECG, clinical pathology and physical examination. Upon arrival at the laboratory, the dogs were weighed and acclimated for a period of one week. Lab Diet certified canine diet #5007, PMI Nutrition International Inc was made available ad libitum to all dogs except during fasting periods. The dogs were surgically implanted with a pressure transducer equipped telemetry transmitter under sodium pentobarbitone anesthesia. The transmitter assembly was secured internally, the fluid-filled catheter was placed into an appropriate artery.
(§2) In the acute studies, the test compounds 3b and 5b at different doses (dosing sequences provided in Table B7 for compound 3b and Table B8 for compound 5b) was administered by oral gavage, 30 minutes prior to intravenous dexmedetomidine (5 μg/kg) challenge. Dexmedetomidine administration was enabled by prior placement of a peripheral intravenous line. The same four dogs were received all four treatments in the order noted in the table below, with at least a 3-day washout period between treatments.
In another acute study with compound 41a, the test agent was administered a dose of 6 mg/kg by oral gavage to 4 healthy dogs; and the blood pressure monitored for a period of 4 hours.
(§3) For the chronic study mode (see Table B9), the test compound 3b at 3 doses was administered by oral gavage once on day 1 and then twice/day on days 2 to 14, and finally once on day 15. The dexmedetomidine was administered on day-4 to check its effectiveness in inducing blood pressure, and once following the morning dose of compound 3b or vehicle on days 2, 7 and 14. Blood pressure and heart rate data were collected 1 h prior & 4 h post-morning dose on days 1, 2, 7, 14 and 15 to allow the appropriate data comparisons. Blood aliquots were saved at 4 h post-morning dose for exposure determination.
In both acute and chronic studies, dogs were weighed before dosing. Cardiovascular evaluations at each dose of test compound were collected with animals gently restrained in a sling. Dogs were placed in the sling at least 1 hour prior to dose administration, and after at least 30 minutes of stable baseline data collection. The dogs were monitored continuously for 3-4 hours subsequent to test compound administration and summarized in 5-minute bins. The systolic blood pressure was collected.

[2] = system: dexmedetomidine induced dogs; assay: Dexmedetomidine (DEX) induced beagle dog model of hypertension; format: in vivo
Excerpt: as §1, §2, §3
In both acute and chronic studies, dogs were weighed before dosing. Cardiovascular evaluations at each dose of test compound were collected with animals gently restrained in a sling. […] The dogs were monitored continuously for 3-4 hours subsequent to test compound administration and summarized in 5-minute bins. […]

[3] = dexmedetomidine (5 μg/kg i.v.) induced dogs, acute studies, oral gavage 30 min before challenge

| Structure (SMILES) | Relative cell viability protection (SH-SY5Y cells) | viability at 0.0001 µM [1] [%] | systolic blood pressure (healthy dogs; acute studies, oral gavage) | systolic blood pressure (healthy dogs; chronic study, oral, day 1 and 15) | systolic blood pressure [2, 3] | systolic blood pressure ([2]; dexmedetomidine induced dogs, chronic study, oral b.i.d., day 2, 7 and 14) | heart rate (healthy dogs; 6 mg/kg oral gavage) |
| --- | --- | --- | --- | --- | --- | --- | --- |
| Cc1ccc2c(c1)c1c(n2CC(O)c2ccncc2)CCN(C)C1 (single isomer, unassigned) [3b] | 0.3673 | 70.8 | dose-dependently reduced systolic blood pressure | dose dependently reduced systolic blood pressure | dose-dependently reduced systolic blood pressure | dose dependently reduced systolic blood pressure |  |
| CN1CCc2c(c3cc(Cl)ccc3n2CC(O)c2ccncc2)C1 (single isomer, unassigned) [4a] |  | 73.4 |  |  |  |  |  |
| Cc1ccc2c(c1)c1c(n2CC(C)(O)c2cccnc2)CCN(C)C1 (single isomer, unassigned) [5b, 1-(1,2,3,4-tetrahydro-2,8-dimethylpyrido[4,3-b]indol-5-yl)-2-(pyridin-3-yl)propan-2-ol] | 0.3748 | 76.5 | dose-dependently reduced systolic blood pressure |  | dose-dependently reduced systolic blood pressure |  |  |
| Cc1ccc2c(c1)c1c(n2CC(O)c2ccncc2)CCNC1 (single isomer, unassigned) [39a, 2-(8-methyl-1,2,3,4-tetrahydro-pyrido[4,3-b]indol-5-yl)-1-pyridin-4-yl-ethanol] |  | 72.5 |  |  |  |  |  |
| CN1CCc2c(n(CC(O)c3ccncc3)c3ccc(Cl)cc23)C1 (single isomer, unassigned) [41a] |  |  | robust and long lasting reduction in systolic blood pressure |  |  |  | slight decrease or neutral effect |
